Laboratory results published in US20220080053A1, “USE OF ANTI-CEACAM5 IMMUNOCONJUGATES FOR TREATING LUNG CANCER” (SANOFI, priority 2019, published 2022).

Columns and labels:
[1] = test system: Macaca fascicularis CEACAM5; conditions: cited from earlier work
[2] = test system: other CEACAM family members; conditions: cited from earlier work
human CEACAM5 = target: T1, human CEACAM5 (Homo sapiens, UniProt P06731); experiment: Affinity for human CEACAM5; format: binding
T1 construct: soluble recombinant CEACAM5 as capture antigen
T1 sequence (P06731 35-685 limits assumed): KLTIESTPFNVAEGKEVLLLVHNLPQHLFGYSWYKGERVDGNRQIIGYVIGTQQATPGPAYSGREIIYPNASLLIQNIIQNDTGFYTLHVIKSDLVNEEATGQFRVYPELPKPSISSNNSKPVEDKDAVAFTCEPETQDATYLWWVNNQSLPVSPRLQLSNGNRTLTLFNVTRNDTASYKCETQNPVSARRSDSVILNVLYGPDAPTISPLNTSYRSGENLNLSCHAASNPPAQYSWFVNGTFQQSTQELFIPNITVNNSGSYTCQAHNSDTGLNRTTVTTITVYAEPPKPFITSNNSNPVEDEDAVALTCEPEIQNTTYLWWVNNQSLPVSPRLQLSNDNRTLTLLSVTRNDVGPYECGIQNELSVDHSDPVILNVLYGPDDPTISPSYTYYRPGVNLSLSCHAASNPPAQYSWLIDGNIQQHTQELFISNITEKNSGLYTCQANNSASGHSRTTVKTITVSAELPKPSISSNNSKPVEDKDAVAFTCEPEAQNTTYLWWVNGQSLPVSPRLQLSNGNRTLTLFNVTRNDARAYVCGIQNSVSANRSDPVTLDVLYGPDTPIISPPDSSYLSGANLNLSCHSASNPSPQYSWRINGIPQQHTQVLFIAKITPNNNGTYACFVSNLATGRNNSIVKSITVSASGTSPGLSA
Text: (§1) In an attempt to produce new antibodies against CEACAM5 surface protein with optimal characteristics for therapeutic purposes, mice were immunized with recombinant proteins and with tumour cells. They have screened hundreds of hybridoma using ELISA on several recombinant proteins of the CEACAM family, and flow cytometry with relevant cell lines, in order to select only immunoglobulins (IgGs) with the advantageous profile. Unexpectedly, they were able to select hybridoma clones and produce corresponding mature IgGs that comprise all of the desired features. […] In a cellular context, these antibodies display high affinity for tumor cells (in the nano-molar range). […] It can be experimentally assessed by a variety of known methods, such as measuring association and dissociation rates with surface plasmon resonance or measuring the EC50 (or apparent KD) in an immunochemical assay (ELISA, FACS). In these assays, the EC50 is the concentration of the antibody which induces a response halfway between the baseline and maximum after some specified exposure time on a defined concentration of antigen by ELISA (enzyme-linked immuno-sorbent assay) or cell expressing the antigen by FACS (Fluorescence Activated Cell Sorting). Affinity for human CEACAM5 or for Macaca fascicularis CEACAM5 may be determined as the EC50 value in an ELISA using soluble recombinant CEACAM5 as capture antigen.

[3] = test system: Macaca fascicularis CEACAM5; experiment: Affinity for Macaca fascicularis CEACAM5; format: binding
Text: as §1

Chain of Macaca fascicularis CEACAM5 (as listed by the source): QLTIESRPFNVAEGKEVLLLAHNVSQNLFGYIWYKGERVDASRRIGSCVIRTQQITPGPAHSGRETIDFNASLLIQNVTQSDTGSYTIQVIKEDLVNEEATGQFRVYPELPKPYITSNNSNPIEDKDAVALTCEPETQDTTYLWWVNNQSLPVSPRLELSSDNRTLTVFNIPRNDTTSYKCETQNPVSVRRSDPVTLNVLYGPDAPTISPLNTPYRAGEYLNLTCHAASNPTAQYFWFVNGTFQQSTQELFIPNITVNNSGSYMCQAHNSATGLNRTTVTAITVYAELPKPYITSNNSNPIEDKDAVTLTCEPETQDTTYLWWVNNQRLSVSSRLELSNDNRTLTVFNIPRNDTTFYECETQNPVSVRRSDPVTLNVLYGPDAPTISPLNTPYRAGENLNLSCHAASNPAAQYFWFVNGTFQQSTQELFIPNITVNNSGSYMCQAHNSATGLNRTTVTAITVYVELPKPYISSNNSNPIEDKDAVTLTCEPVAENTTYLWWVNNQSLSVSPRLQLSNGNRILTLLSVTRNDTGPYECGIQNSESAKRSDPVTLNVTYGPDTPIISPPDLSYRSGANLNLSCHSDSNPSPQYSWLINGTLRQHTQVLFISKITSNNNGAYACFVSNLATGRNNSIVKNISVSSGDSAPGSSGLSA

## labetuzumab: Immunomedics anti-human CEACAM5 antibody used in clinical trials
[1]
  cross-reaction with CEACAM5 from Macaca fascicularis: not cross-reacting
[2]
  binding to related antigens / other CEACAM family members: not to bind

B1: Mab2K52R: variant of antibody MAb2 generated by introducing a K52R substitution in the CDR2-L (antibody, V domains shown)
VH: EVQLQESGGVLVKPGGSLKLSCAASGFVFSSYDMSWVRQTPEKRLEWVAYISSGGGITYFPDTVQGRFTVSRDNAKNTLYLQMNSLKSEDTAIYYCAAHYFGSSGPFAYWGQGTLVTVSA
VL: DIQMTQSPASLSASVGETVTITCRASENIFSYLAWYQQKQGKSPQLLVYNTRTLAEGVPSRFSGSGSGTQFSLKINSLQPEDFGSYYCQHHYGTPFTFGSGTKLEIK
Human CEACAM5
  affinity for human CEACAM5 compared with MAb2: essentially the same affinity
[3]
  affinity for Macaca fascicularis CEACAM5 compared with MAb2: essentially the same affinity
